Test results as given in patent US20240122847A1, “ORAL POLYPEPTIDE FORMULATIONS” (Bhami's Research Laboratory, Pvt. Ltd., priority 2022, published 2024).
Read-outs that look alike come from different tables or passages of the source.

Tests used:
[1] = minipig, in vivo
Experimental: Pharmacokinetic analysis was conducted in Female Minipigs weighing 12±1 kg for 2 days. Pigs in the oral treatment group was either fasted overnight or fed prior to the test sample administration. All the test animals in the treatment groups were administered with respective test formulation to the pre-designated animals. The animal was restrained and its head was held vertically, the jaws were pulled away, the tongue was gently lifted with a forceps followed by placement of a polypeptide formulation as described herein buccally/sublingually. After placing a polypeptide formulation as described herein, the snout was held together for about 1-2 mins to prevent the chewing of the polypeptide formulation. The time of dosage of each animal was noted. Blood samples were collected at aforementioned time points 0 min, 5 min, 30 min, 1 hour, 2 hours, 4 hours, 8 hours, and 24 hours into an EDTA-blood collection tubes for the separation of plasma to determine PTH (1-34) levels by ELISA. Plasma samples collected at different time points were analyzed by ELISA kit according to Creative Diagnostics protocol. This kit is based on sandwich enzyme-linked immuno-sorbent assay technology. An antibody, anti-PTH (1-34) was pre-coated onto a 96-well plate. Standards, test samples, and biotin-conjugated reagent were added to the wells and incubated. The HRP-conjugated reagent was then added, and the whole plate was incubated. Unbound conjugates were removed using wash buffer at each stage. TMB substrate was used to quantify the HRP enzymatic reaction. After TMB substrate was added, only wells that contain sufficient PTH (1-34) will produce a blue colored product, which then changes to yellow after adding the acidic stop solution. The intensity of the yellow color is proportional to the PTH (1-34) amount bound on the plate. The Optical Density (OD) was measured spectrophotometrically at 450 nm in a microplate reader, from which the concentration of PTH (1-34) can be calculated.
(§2) PTH (1-34) was analyzed in plasma using a specific enzyme linked immunosorbent assay (ELISA). Pharmacokinetic endpoints were determined using noncompartmental methods using PK Solutions software. AUC was approximated using the trapezoidal rule on the observed concentrations. C max for each PTH (1-34) dose was derived as the maximum of all valid concentrations, and t max was then determined as the corresponding time point to C max. The terminal elimination rate constant (λz) was estimated by log-linear regression on the terminal part of the concentration-time curve, and t ½ was then calculated as t ½=ln 2/λz.

[2] = system: serum calcium, serum phosphorous and alkaline phosphatase; assay: Pharmacodynamics of PTH in rats; format: in vivo, SD rats; set-up: sCa (serum calcium): unit not given here; conditions: for sALP (serum alkaline phosphatase) / sCa (serum calcium) / sP (serum phosphorous): subcutaneous 40 μg
Excerpt: (§1) The serum calcium and serum phosphorous were estimated using Siemen's […] 744 Electrolyte Analyzer and for serum ALP Siemen's Dimension Expand Plus was used.
The pharmacodynamics data in subcutaneous and buccal/Sublingual groups of rats are shown in Tables 27 and 28 and in FIGS. 67 and 68.

[3] = rat, in vivo, sc, 0.04 mg
Experimental: Pharmacokinetic analysis was conducted in female rats weighing 220-250 grams for 2 days. Rats in the oral treatment group was either fasted overnight or fed prior to the test sample administration. All the test animals in the treatment groups were administered with respective test formulation to the pre-designated animals. The animal was restrained and its head was held vertically, the jaws were pulled away, the tongue was gently lifted with a forceps followed by placement of a polypeptide formulation as described herein buccally/sublingually. After placing a polypeptide formulation as described herein, the snout was held together for about 1-2 mins to prevent the chewing of the polypeptide formulation. The time of dosage of each animal was noted. Blood samples were collected at aforementioned time points 0 min, 15 min, 30 min, 1 hour, 2 hours, 4 hours, 8 hours, 12 hours, 24 hours, and 48 hours into an EDTA-blood collection tubes for the separation of plasma to determine PTH (1-34) levels by ELISA. Plasma samples collected at different time points were analyzed by ELISA kit according to Creative Diagnostics protocol. This kit is based on sandwich enzyme-linked immuno-sorbent assay technology. An antibody, anti-PTH (1-34) was pre-coated onto a 96-well plate. Standards, test samples, and biotin-conjugated reagent were added to the wells and incubated. The HRP-conjugated reagent was then added, and the whole plate was incubated. Unbound conjugates were removed using wash buffer at each stage. TMB substrate was used to quantify the HRP enzymatic reaction. After TMB substrate was added, only wells that contain sufficient PTH (1-34) will produce a blue colored product, which then changes to yellow after adding the acidic stop solution. The intensity of the yellow color is proportional to the PTH (1-34) amount bound on the plate. The Optical Density (OD) was measured spectrophotometrically at 450 nm in a microplate reader, from which the concentration of PTH (1-34) can be calculated.
as §2

[4] = system: serum calcium, serum phosphorous and alkaline phosphatase; assay: Pharmacodynamics of PTH in Yorkshire pigs; format: in vivo; set-up: sCa / sP / sALP: unit not given here; conditions: Yorkshire pigs
Excerpt: as §1
The pharmacodynamics data in subcutaneous and buccal/Sublingual groups are shown in Tables 21 and 22 and in FIGS. 63 and 64.

[5] = Buccal/Sublingual Sugar Truffle Shell (0.49 mg), 0 h
[6] = Buccal/Sublingual Sugar Truffle Shell (0.49 mg), 0.08 h
[7] = Buccal/Sublingual Sugar Truffle Shell (0.49 mg), 0.5 h
[8] = Buccal/Sublingual Sugar Truffle Shell (0.49 mg), 1 h
[9] = Buccal/Sublingual Sugar Truffle Shell (0.49 mg), 2 h
[10] = Buccal/Sublingual Sugar Truffle Shell (0.49 mg), 4 h
[11] = Buccal/Sublingual Sugar Truffle Shell (0.49 mg), 8 h
[12] = Buccal/Sublingual Sugar Truffle Shell (0.49 mg), 24 h

For CC[C@H](C)[C@H](NC(=O)[C@H](CCC(=O)O)NC(=O)[C@H](CO)NC(=O)[C@@H](NC(=O)[C@@H](N)CO)C(C)C)C(=O)N[C@@H](CCC(N)=O)C(=O)N[C@@H](CC(C)C)C(=O)N[C@@H](CCSC)C(=O)N[C@@H](Cc1cnc[nH]1)C(=O)N[C@@H](CC(N)=O)C(=O)N[C@@H](CC(C)C)C(=O)NCC(=O)N[C@@H](CCCCN)C(=O)N[C@@H](Cc1cnc[nH]1)C(=O)N[C@@H](CC(C)C)C(=O)N[C@@H](CC(N)=O)C(=O)N[C@@H](CO)C(=O)N[C@@H](CCSC)C(=O)N[C@@H](CCC(=O)O)C(=O)N[C@@H](CCCN=C(N)N)C(=O)N[C@H](C(=O)N[C@@H](CCC(=O)O)C(=O)N[C@@H](Cc1c[nH]c2ccccc12)C(=O)N[C@@H](CC(C)C)C(=O)N[C@@H](CCCN=C(N)N)C(=O)N[C@@H](CCCCN)C(=O)N[C@@H](CCCCN)C(=O)N[C@@H](CC(C)C)C(=O)N[C@@H](CCC(N)=O)C(=O)N[C@@H](CC(=O)O)C(=O)N[C@H](C(=O)N[C@@H](Cc1cnc[nH]1)C(=O)N[C@@H](CC(N)=O)C(=O)N[C@@H](Cc1ccccc1)C(=O)O)C(C)C)C(C)C [PTH (1-34)], the “AUC 0-inf/D_obs” value ([1]; 0.49 mg) was 13610.915 pg·h/mL/mg, the “AUC 0-inf/D_pred” value ([1]; 0.49 mg) was 13604.805 pg·h/mL/mg and the “AUC 0-t/0-inf_obs” value ([1]; 0.49 mg) was 0.996. The “AUC 0-t/0-inf_pred” value ([1]; 0.49 mg) was 0.997, the Clast_obs/Cmax ([1]; 0.49 mg) was 0.005 and the Clast_pred/Cmax ([1]; 0.49 mg) was 0.005. The “AUC 0-inf/D_obs” value ([1]; sc, 0.04 mg) was 240.561 pg·h/mL/µg, the “AUC 0-inf/D_pred” value ([1]; sc, 0.04 mg) was 240.495 pg·h/mL/µg and the “AUC 0-t/0-inf_obs” value ([1]; sc, 0.04 mg) was 0.996. For the same molecule, the “AUC 0-t/0-inf_pred” value ([1]; sc, 0.04 mg) was 0.996, the Cl/F_obs ([1]; sc, 0.04 mg) was 0.004 (μg)/(pg/mL)/h and the Cl/F_pred ([1]; sc, 0.04 mg) was 0.004 (μg)/(pg/mL)/h. The Clast_obs/Cmax ([1]; sc, 0.04 mg) was 0.002, the Clast_pred/Cmax ([1]; sc, 0.04 mg) was 0.002 and the Vz/F_obs ([1]; sc, 0.04 mg) was 0.027 (μg)/(pg/mL). The Vz/F_pred ([1]; sc, 0.04 mg) was 0.027 (μg)/(pg/mL), the “PD effect on serum calcium, serum phosphorous and serum alkaline phosphatase” value ([2]; PTH given by buccal/sublingual route) was “clearly indicates the effect on serum calcium, serum phosphorous and serum alkaline phosphatase” and the “sALP (serum alkaline phosphatase)” value ([2]; time 0 hours) was 98.5 ± 33.23. For the same molecule, the “sCa (serum calcium)” value ([2]; time 0 hours) was 9.05 ± 0.07, the “sP (serum phosphorous)” value ([2]; time 0 hours) was 9.3 ± 0.28 and the “sALP (serum alkaline phosphatase)” value ([2]; time 0.08 hours) was 131 ± 1.41. For the same molecule, the “sCa (serum calcium)” value ([2]; time 0.08 hours) was 9.65 ± 0.77, the “sP (serum phosphorous)” value ([2]; time 0.08 hours) was 8.85 ± 0.07 and the “sALP (serum alkaline phosphatase)” value ([2]; time 0.5 hours) was 136 ± 7.07. The “sCa (serum calcium)” value ([2]; time 0.5 hours) was 10.2 ± 0.28, the “sP (serum phosphorous)” value ([2]; time 0.5 hours) was 8.45 ± 0.21 and the “sALP (serum alkaline phosphatase)” value ([2]; time 1 hours) was 142 ± 5.65. The “sCa (serum calcium)” value ([2]; time 1 hours) was 10.35 ± 0.35, the “sP (serum phosphorous)” value ([2]; time 1 hours) was 4.85 ± 0.91 and the “sALP (serum alkaline phosphatase)” value ([2]; time 2 hours) was 184.5 ± 16.26. For the same molecule, the “sCa (serum calcium)” value ([2]; time 2 hours) was 10.45 ± 0.35, the “sP (serum phosphorous)” value ([2]; time 2 hours) was 5.75 ± 1.06 and the “sALP (serum alkaline phosphatase)” value ([2]; time 4 hours) was 151 ± 21.21. For the same molecule, the “sCa (serum calcium)” value ([2]; time 4 hours) was 9.45 ± 0.21, the “sP (serum phosphorous)” value ([2]; time 4 hours) was 8.65 ± 0.21 and the “sALP (serum alkaline phosphatase)” value ([2]; time 8 hours) was 131.5 ± 14.84. The “sCa (serum calcium)” value ([2]; time 8 hours) was 9.25 ± 0.35, the “sP (serum phosphorous)” value ([2]; time 8 hours) was 8.95 ± 0.07 and the “sALP (serum alkaline phosphatase)” value ([2]; time 24 hours) was 111 ± 21.21. For the same molecule, the “sCa (serum calcium)” value ([2]; time 24 hours) was 9.05 ± 0.21, the “sP (serum phosphorous)” value ([2]; time 24 hours) was 9.35 ± 0.07 and the “AUC 0-inf/D_obs” value [3] was 480.625 pg·h/mL/µg. The “AUC 0-inf/D_pred” value [3] was 480.502 pg·h/mL/µg, the Cl/F_obs [3] was 0.002 (μg)/(pg/mL)/h and the Cl/F_pred [3] was 0.002 (μg)/(pg/mL)/h. The Vz/F_obs [3] was 0.013 (μg)/(pg/mL), the Vz/F_pred [3] was 0.013 (μg)/(pg/mL) and the sALP [4, 5] was 170.55 ± 12.85. It also gave a sCa [4, 5] of 9.46 ± 0.4, a sP [4, 5] of 10.52 ± 0.33 and a sALP [4, 6] of 193.5 ± 9.32. It also gave a sCa [4, 6] of 10.05 ± 0.17, a sP [4, 6] of 9.87 ± 0.15 and a sALP [4, 7] of 170.25 ± 10.81. The sCa [4, 7] was 9.77 ± 0.12, the sP [4, 7] was 8.82 ± 0.17 and the sALP [4, 8] was 148.5 ± 11.9. It also gave a sCa [4, 8] of 9.62 ± 0.04, a sP [4, 8] of 8.3 ± 0.16 and a sALP [4, 9] of 137.75 ± 9.67. For the same molecule, the sCa [4, 9] was 9.25 ± 0.26, the sP [4, 9] was 9.1 ± 0.49 and the sALP [4, 10] was 131 ± 11.91. The sCa [4, 10] was 9.3 ± 0.34, the sP [4, 10] was 9 ± 0.11 and the sALP [4, 11] was 128 ± 14.02. For the same molecule, the sCa [4, 11] was 9.17 ± 0.26, the sP [4, 11] was 8.97 ± 0.17 and the sALP [4, 12] was 126.5 ± 15.28. It also gave a sCa [4, 12] of 9 ± 0.18, a sP [4, 12] of 9.02 ± 0.14 and a sALP ([4]; Subcutaneous (40 μg), 0 h) of 116.5 ± 6.36. For the same molecule, the sCa ([4]; Subcutaneous (40 μg), 0 h) was 9.35 ± 0.63, the sP ([4]; Subcutaneous (40 μg), 0 h) was 10.7 ± 0.14 and the sALP ([4]; Subcutaneous (40 μg), 0.08 h) was 119.5 ± 2.12. The sCa ([4]; Subcutaneous (40 μg), 0.08 h) was 9.65 ± 0.77 and the sP ([4]; Subcutaneous (40 μg), 0.08 h) was 10.52 ± 0.17.
